Results: US8999956B2, “N-[(het)arylalkyl)] pyrazole(thio)carboxamides and their heterosubstituted analogues” (Bayer Intellectual Property GmbH, priority 2010, dated 2015)

Key:
[1] = test system: Sphaerotheca fuliginea; assay: In vivo preventive test on Sphaerotheca fuliginea (cucumber); conditions: 500 ppm of active ingredient, evaluated 7 days after inoculation
Method in brief: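 Young cucumber plants sprayed with compound (in DMF with alkylarylpolyglycolether emulsifier, diluted in water) at the stated application rate. Inoculated one day later with aqueous Sphaerotheca fuliginea spore suspension. Plants then held in greenhouse at approximately 23° C and approximately 70% relative humidity.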

[2] = test system: Alternaria solani; assay: In vivo preventive test on Alternaria solani (tomato); conditions: 500 ppm of active ingredient, evaluated 7 days after inoculation
Method in brief: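 Preventive set-up: Alternaria solani spores, as aqueous suspension, applied to young plants one day after spraying. Spray contained active compound formulated with N,N-dimethylformamide and emulsifier, water-diluted to the desired application rate.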

[3] = test system: Pyrenophora teres; assay: In vivo preventive test on Pyrenophora teres (barley); conditions: 500 ppm of active ingredient, evaluated 7-9 days after inoculation
Method in brief: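 Preventive test: young barley plants received a water-diluted spray of compound formulated with DMF solvent plus alkylaryl polyglycol ether emulsifier, at the stated rate. Inoculation with an aqueous spore suspension of Pyrenophora teres followed one day after spraying.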

[4] = test system: Venturia inaequalis; assay: In vivo preventive test on Venturia inaequalis (apple scab); conditions: 100 ppm of active ingredient, evaluated 10 days after inoculation
Method in brief: (§1)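 Young plants sprayed preventively at the stated application rate with compound dissolved in acetone/N,N-dimethylacetamide plus alkylaryl polyglycol ether emulsifier and diluted with water to the desired concentration.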

[5] = test system: Septoria tritici; assay: In vivo preventive test on Septoria tritici (wheat); conditions: 500 ppm of active ingredient, evaluated 21 days after inoculation
Method in brief: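 Compound formulated in N,N-dimethylacetamide with alkylaryl polyglycol ether emulsifier and diluted in water to the stated rate. Young wheat plants sprayed preventively; after the deposit dried, they were inoculated with a Septoria tritici spore suspension.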

[6] = test system: Blumeria graminis fsp. hordei; assay: In vivo preventive test on Blumeria graminis (barley); conditions: 500 ppm of active ingredient, evaluated 7 days after inoculation
Method in brief: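 Active compound taken up in N,N-dimethylacetamide with alkylaryl polyglycol ether emulsifier, then diluted in water to the desired concentration. Young barley plants sprayed at the stated application rate; once the coating had dried, plants were dusted with Blumeria graminis f. sp. hordei spores.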

[7] = test system: Fusarium graminearum; conditions: in vivo
[8] = test system: Leptosphaeria nodorum; assay: In vivo preventive test on Leptosphaeria nodorum (wheat); conditions: 500 ppm of active ingredient, evaluated 7-9 days after inoculation
Method in brief: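 Plants were inoculated with aqueous L. nodorum spores one day after a protective spray. The spray contained the compound at the stated rate, as a water-diluted concentrate in N,N-dimethylacetamide plus alkylaryl polyglycol ether emulsifier.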

[9] = test system: Uromyces appendiculatus; assay: In vivo preventive test on Uromyces appendiculatus (beans); conditions: 100 ppm of active ingredient, evaluated 10 days after inoculation
Method in brief: as §1

[10] = test system: Puccinia triticina; assay: In vivo preventive test on Puccinia triticina (wheat); conditions: Table K, 500 ppm of active ingredient, evaluated 8 days after inoculation
[11] = test system: Botrytis cinerea; assay: In vivo preventive test on Botrytis cinerea (beans)
Method in brief: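 Young bean plants sprayed preventively with compound in acetone/dimethylacetamide/emulsifier diluted in water; after drying, each leaf inoculated with 2 agar pieces bearing Botrytis cinerea. Kept dark at 20° C, 100% humidity; lesion size scored at 2 days as % efficacy (0% = untreated, 100% = no disease).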

[12] = test system: Phakopsora pachyrhizi; assay: In vivo protective test on Phakopsora pachyrhizi (soybeans); conditions: Table N, 250 ppm of active ingredient, evaluated 11 days after inoculation
[13] = test system: aflatoxines produced by Aspergillus parasiticus; assay: microbe, parasite or virus in culture; format: cell-based; conditions: 50 µM
[14] = test system: Aspergillus parasiticus; assay: microbe, parasite or virus in culture; format: cell-based; conditions: 50 µM
[15] = log P by HPLC on reversed-phase column (EEC Directive 79/831 Annex V.A8); format: physicochemical
Method: In table 1, the log P values were determined in accordance with EEC Directive 79/831 Annex V.A8 by HPLC (High Performance Liquid Chromatography) on a reversed-phase column (C18), using the method described below: Temperature: 40° C.; […]

## Cn1nc(C(F)F)c(C(=O)N(C2CC2)C2CCCCC2Oc2ccccc2)c1F (centres unmarked) [Example 244]
[1]
  Efficacy: 100%
[2]
  Efficacy: 100%
[3]
  Efficacy: 95%
[4]
  Efficacy: 100%
[5]
  Efficacy: 100%
[6]
  Efficacy: 100%
[7]
  Efficacy: 100%
[8]
  Efficacy: 95%
[9]
  Efficacy: 100%
[10]
  Efficacy: 100%
[11]; 500 ppm of active ingredient, lesion size 2 days after inoculation
  Efficacy: at least 85%
[11]; Table L4, dose 500 ppm, comparison with des-fluoro analogue
  Efficacy: 88%
[11]; Table L, 500 ppm of active ingredient, lesion size 2 days after inoculation
  Efficacy: 88%
[12]
  Efficacy: 98%
[13]
  % Inhibition of Aflatoxin at 50 μM: 99%
[14]
  % Inhibition of fungal growth at 50 μM: 82%
[15]
  logP: 3.89
